Reference: PMC11428108 (Frontiers in Molecular Neuroscience, 2024)
“And” between values parts separate entries of the source, which are not always exact repeats. Equal entries are not always repeated. Where two headings read alike, the source gives them in different places.

Assay: Plasma pharmacokinetics after IV or PO administration
Assay type: in vivo, male C57BL/6J mice
Method: Mice prepared with intravenous catheters and treated with SR9883 via oral (10 mg kg^−1) or intravenous (1 mg kg^−1) routes of administration. Blood samples were collected up to 240 min after treatment into lithium heparin coated tubes (Ram Scientific) and stored on wet ice. Blood samples were later centrifuged for 3 min at 5,000 RPM to separate plasma from red blood cells. Plasma was collected into a fresh tube and stored at −80°C. A separate group of mice was treated with SR9883 (20 mg kg^−1 PO) and killed by cervical dislocation 120 min later. Their brains were collected and stored at −80°C. SR9883 levels were quantified in plasma and brain by mass spectrometry using an ABSciex 5,500 instrument and using multiple reaction monitoring as previously described ([Radnai et al., 2021]). Brain samples were homogenized in saline and then immediately treated with twice the amount (v:v) of acetonitrile to extract the compound. Plasma samples were directly treated with acetonitrile. Samples were filtered through a 0.2 μm filter plate prior to injection onto the LC–MS/MS as previously described ([Radnai et al., 2021]).

[1] = male, C57BL/6J, mouse, IV 1 mg kg^−1, plasma, n = 3
[2] = male, C57BL/6J, mouse, PO 10 mg kg^−1, plasma, n = 3

**Q.** Which results are given for `N#Cc1cccc(-n2nnc(-c3cccnc3)n2)c1` [SR9883, 3-(5-(pyridin-3-yl)-2H-tetrazol-2-yl)benzonitrile]?
**A.** Vss_obs (IV 1 mg kg^−1, n = 3): 2.72 ± 0.89 L/kg; Cl_obs (PO 10 mg kg^−1, n = 3): 24.59 ± 2.42 mL/min/kg; half-life (male, C57BL/6J, mouse, plasma, iv, 1 mg/kg, IV 1 mg kg^−1, as stated in text, read-out: plasma half-life (T½)): ~53 min; Cmax (male, C57BL/6J, mouse, plasma, iv, 1 mg/kg, IV 1 mg kg^−1, plasma, n = 3): ~775 ng/mL and ~3 µM; half-life (male, C57BL/6J, mouse, plasma, iv, 1 mg/kg, IV 1 mg kg^−1, plasma, n = 3, mean (S.E.M.), read-out: T1/2 (converted)): 52.8 ± 21.1 min; half-life (male, C57BL/6J, mouse, plasma, other: intravenous and oral, after IV and oral administration, read-out: half-life): 50 to 60 min; half-life (male, C57BL/6J, mouse, plasma, po, 10 mg/kg, PO 10 mg kg^−1, as stated in text, read-out: T½): ~64 min; Cmax (male, C57BL/6J, mouse, plasma, po, 10 mg/kg, PO 10 mg kg^−1, plasma, n = 3): 1020 ± 60.6 ng/mL; half-life (male, C57BL/6J, mouse, plasma, po, 10 mg/kg, PO 10 mg kg^−1, plasma, n = 3, mean (S.E.M.), read-out: T1/2 (converted)): 224 ± 36.6 min; clearance (male, C57BL/6J, mouse, plasma, IV 1 mg kg^−1, n = 3, read-out: Cl_obs): 45.7 ± 12.8 mL/min/kg; AUC(0-t) [1]: 1.77 ± 0.62 µM·h; Tmax [1]: 4.8 min; AUC(0-t) [2]: 21.1 ± 0.54 µM·h; Tmax [2]: 64.8 ± 30.6 min
